Laboratory results from patent US7285683B2, “Bicyclic and tricyclic cannabinoids” (University of Connecticut, priority 2001, dated 2007).
Read-outs that look alike come from different tables or passages of the source.

Columns and labels:
[1] = target: T1, CB1 cannabinoid receptor (Rattus norvegicus, UniProt P20272); assay: CB1 receptor binding assay, [3H] CP-55,940 displacement, rat forebrain membranes
T1 construct: membranes were prepared from rat forebrain membranes; from tissue; host or cells: rat forebrain
T1 sequence (P20272 whole entry): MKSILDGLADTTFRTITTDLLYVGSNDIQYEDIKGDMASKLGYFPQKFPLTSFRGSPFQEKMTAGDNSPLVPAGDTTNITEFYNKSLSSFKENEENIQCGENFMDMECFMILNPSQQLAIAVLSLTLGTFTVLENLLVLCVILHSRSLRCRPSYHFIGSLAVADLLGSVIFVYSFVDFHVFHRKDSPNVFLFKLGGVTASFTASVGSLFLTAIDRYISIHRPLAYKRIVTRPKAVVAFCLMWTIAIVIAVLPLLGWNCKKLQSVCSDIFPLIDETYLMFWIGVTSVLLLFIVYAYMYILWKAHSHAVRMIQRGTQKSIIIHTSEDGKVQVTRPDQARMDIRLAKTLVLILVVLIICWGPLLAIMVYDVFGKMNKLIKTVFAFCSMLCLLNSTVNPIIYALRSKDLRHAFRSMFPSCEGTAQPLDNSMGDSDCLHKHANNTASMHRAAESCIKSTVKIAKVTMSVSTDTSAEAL
Experimental: Some inventive analogs were tested for CB2 receptor binding affinity and for CB1 receptor affinity (to determine selectivity). As used herein, “binding affinity” is represented by the IC50 value which is the concentration of an analog required to occupy the 50% of the total number (Bmax) of the receptors. The lower the IC50 value the higher the binding affinity. […] For the CB1 receptor binding studies, membranes were prepared from rat forebrain membranes according to the procedure of P. R. Dodd et al, A Rapid Method for Preparing Synaptosomes: Comparison with Alternative Procedures, Brain Res., 107-118 (1981). The binding of the novel analogues to the CB1 cannabinoid receptor was assessed as described in W. A. Devane et al, Determination and Characterization of a Cannabinoid Receptor in a Rat Brain, Mol. Pharmacol., 34, 605-613 (1988) and A. Charalambous et al, 5′-azido Δ^8- THC: A Novel Photoaffinity Label for the Cannabinoid Receptor, J. Med. Chem., 35, 3076-3079 (1992) with the following changes. The above articles are incorporated by reference herein.
Membranes, previously frozen at −80° C., were thawed on ice. To the stirred suspension was added three volumes of TME (25 mM Tris-HCl buffer, 5 mM MgCl2 and 1 mM EDTA) at a pH 7.4. The suspension was incubated at 4° C. for 30 min. At the end of the incubation, the membranes were pelleted and washed three times with TME.
The treated membranes were subsequently used in the binding assay described below. Approximately 30 μg of membranes were incubated in silanized 96-well microtiter plate with TME containing 0.1% essentially fatty acid-free bovine serum albumin (BSA), 0.8 nM [^3H] CP-55,940, and various concentrations of test materials in a final volume of 200 μL. The assays were incubated for 1 hour at 30° C. and then immediately filtered using Packard Filtermate 196 harvester and Whatman GF/C filterplates and washed with wash buffer (TME) containing 0.5% BSA. Radioactivity was detected using MicroScint 20 scintillation cocktail added directly to the dried filterplates, and the filterplates were counted using a Packard Instruments Top-Count. Nonspecific binding was assessed using 100 nM CP-55,940. Data collected from three independent experiments performed with duplicate determinations was normalized between 100% and 0% specific binding for [^3H] CP-55,940, determined using buffer and 100 nM CP-55,940. The normalized data was analyzed using a 4-parameter nonlinear logistic equation to yield IC50 values. Data from at least two independent experiments performed in duplicate was used to calculate IC50 values which were converted to Ki values using the assumptions of Cheng et al, Relationship Between the Inhibition Constant (Ki) and the concentration of Inhibitor which causes 50% Inhibition (IC50) of an Enzymatic Reaction, Biochem. Pharmacol., 22, 3099-3102, (1973), which is incorporated by reference herein.

[2] = target: T2, CB2 receptor (Mus musculus, UniProt P47936); assay: CB2 receptor binding assay, [3H] CP-55,940 displacement, mouse spleen membranes
T2 construct: membranes were prepared from frozen mouse spleen; from tissue; host or cells: mouse spleen
T2 sequence (P47936 whole entry): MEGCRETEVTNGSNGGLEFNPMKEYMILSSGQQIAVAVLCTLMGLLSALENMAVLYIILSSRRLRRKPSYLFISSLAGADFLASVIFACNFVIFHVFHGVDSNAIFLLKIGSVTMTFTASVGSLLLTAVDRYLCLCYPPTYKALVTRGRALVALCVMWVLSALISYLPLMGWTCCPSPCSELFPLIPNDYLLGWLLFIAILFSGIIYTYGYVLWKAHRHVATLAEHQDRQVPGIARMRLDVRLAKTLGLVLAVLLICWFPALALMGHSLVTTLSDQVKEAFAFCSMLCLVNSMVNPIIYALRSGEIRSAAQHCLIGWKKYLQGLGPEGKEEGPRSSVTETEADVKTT

[3] = Table 1, bicyclic-cannabinoid analogs, rat forebrain membranes, 0.8 nM [3H] CP-55,940, read-out: Ki in nM for the CB1 Receptor

SMILES	Ki [1] [nM]	Ki [2] [nM]	Ki [1, 3] [nM]	melting point	Ki ([1]; Table 2, hexahydrocannabinol analogs, rat forebrain membranes, 0.8 nM [3H] CP-55,940, read-out: Ki in nM for the CB1 Receptor) [nM]
CC(C)(CCCCCCBr)c1cc(O)c([C@@H]2CC(=O)[C@@H]3C[C@H]2C3(C)C)c(O)c1 [Compound 2d, (4R)4-[4-(7′-bromo-1′,1′-dimethylheptyl)-2,6-dihydroxyphenyl]-6,6-dimethyl-2-norpinanone]	10.6	9.3	–	–	–
CCCCCCC1(c2cc(O)c([C@@H]3CC(O)[C@@H]4C[C@H]3C4(C)C)c(O)c2)SCCS1 (stereo partly drawn) [Compound 3, (4R)4-[4-(2-hexyl-1,3-dithiolan-2-yl)-2,6-dihydroxyphenyl]-6,6-dimethyl-2β-norpinanol and (4R)-4-[4-(2-hexyl-1,3-dithiolan-2-yl)-2,6-dihydroxyphenyl]-6,6-dimethyl-2α-norpinanol]	–	76.8	133	–	–
C#CCCCCC(C)(C)c1cc(O)c([C@@H]2CC(=O)[C@@H]3C[C@H]2C3(C)C)c(O)c1 [Compound 2e, (4R)-4-[4-(1′,1′-dimethylhept-6′-ynyl)-2,6-dihydroxyphenyl]-6,6-dimethyl-2-norpinanone]	30.8	0.2	–	–	–
CC(C)(CCCCCCI)c1cc(O)c2c(c1)OC(C)(C)[C@@H]1CC[C@@H](N=[N+]=[N-])C[C@@H]21 [Compound 8, 1-Hydroxy-3-(7′-iodo-1′,1′-dimethylheptyl)-6,6-dimethyl-9β-azido-6a,7,8,8,10,10a-hexahydro-6H-dibenzo[b,d]pyran]	0.8	0.9	–	–	–
CCCCCCC1(c2cc(O)c3c(c2)OC(C)(C)[C@@H]2CCC(=O)C[C@@H]32)SCCS1 (single isomer, unassigned) [Compound 4c, (−)-trans-3-(2-hexyl-1,3-dithiolan-2-yl)-6,6a,7,8,10,10a-hexahydro-1-hydroxy-6,6-dimethyl-9H-dibenzo[b,d]pyran-9-one]	11.7	2.3	–	62 to 64 °C (dec.)	–
CCCCC=CC1(c2cc(O)c3c(c2)OC(C)(C)[C@@H]2CCC(=O)C[C@@H]32)CCCC1 [Compound 4b, (−)-trans-3-(1′,1′-cyclopentylhept-2′-enyl)-6,6a,7,8,10,10a-hexahydro-1-hydroxy-6,6-dimethyl-9H-dibenzo[b,d]pyran-9-one]	0.2	0.2	–	–	–
CC(C)(CCCCCCBr)c1cc(O)c2c(c1)OC(C)(C)[C@@H]1CC[C@@H](N=[N+]=[N-])C[C@@H]21 [Compound 7d, 1-Hydroxy-3-(7′-bromo-1′,1′-dimethylheptyl)-6,6-dimethyl-9β-azido-6a,7,8,8,10,10a-hexahydro-6H-dibenzo[b,d]pyran]	1.6	13.7	–	–	–
CCCCCCC1(c2cc(O)c([C@@H]3CC(=O)C4CC3C4(C)C)c(O)c2)SCCS1 (stereo partly drawn) [Compound 2c, (4R)-4-[4-(2-hexyl-1,3-dithiolan-2-yl)-2,6-dihydroxyphenyl]-6,6-dimethyl-2-norpinanone]	–	10.9	224	160 to 161 °C (dec.)	–
CCCCCCC1(c2cc(O)c3c(c2)OC(C)(C)[C@@H]2CCC(=O)C[C@@H]32)CCCC1 [Compound 4a, (−)-trans-3-(1′,1′-cyclopentylheptyl)-6,6a,7,8,10,10a-hexahydro-1-hydroxy-6,6-dimethyl-9H-dibenzo[b,d]pyran-9-one]	0.1	2.6	–	–	–
CCCCC=CC1(c2cc(O)c([C@@H]3CC(=O)[C@@H]4C[C@H]3C4(C)C)c(O)c2)CCCC1 [Compound 2b, (4R)4-[4-(1′,1′-cyclopentylhept-2′-enyl)-2,6-dihydroxyphenyl]-6,6-dimethyl-2-norpinanone]	74.5	0.4	–	167 to 168 °C	–
CC(C)(CCCCCCBr)c1cc(O)c2c(c1)OC(C)(C)[C@@H]1CCC(=O)C[C@@H]21 (relative stereo) [Compound 4d, (−)-trans-3-(7′-bromo-1′,1′-dimethylheptyl)-6,6a,7,8,10,10a-hexahydro-1-hydroxy-6,6-dimethyl-9H-dibenzo[b,d]pyran-9-one]	1	11.8	–	–	–
CC(C)(CCCCC=CI)c1cc(O)c2c(c1)OC(C)(C)[C@@H]1CC[C@@H](N=[N+]=[N-])C[C@@H]21 [Compound 9, 1-Hydroxy-3-(7′-iodo-1′,1′-dimethylhept-6′-enyl)-6,6-dimethyl-9β-azido-6a,7,8,8,10,10a-hexahydro-6H-dibenzo[b,d]pyran]	0.7	0.7	–	–	–
C#CCCCCC(C)(C)c1cc(O)c2c(c1)OC(C)(C)[C@@H]1CCC(=O)C[C@@H]21 [Compound 4e, (−)-trans-3-(1′,1′-dimethylhept-6′-ynyl)-6,6a,7,8,10,10a-hexahydro-1-hydroxy-6,6-dimethyl-9H-dibenzo[b,d]pyran-9-one]	10.7	4.1	–	–	–
CCCCCCC1(c2cc(O)c([C@@H]3CC(=O)[C@@H]4C[C@H]3C4(C)C)c(O)c2)CCCC1 [Compound 2a, (4R)-4-[4-(1′,1′-cyclopentylheptyl)-2,6-dihydroxyphenyl]-6,6-dimethyl-2-norpinanone]	50.6	0.4	–	187 to 188 °C	–
CCCCCCC1(c2cc(O)c3c(c2)OC(C)(C)[C@@H]2CC[C@@H](O)C[C@@H]32)SCCS1 [Compound 5, 6a,7,8,9,10,10a-Hexahydro-3-(2-hexyl-1,3-dithiolan-2-yl)-6,6-dimethyl-6H-dibenzo[b,d]pyran-1,9β-diol]	–	13.9	–	–	–
C#CCCCCC(C)(C)c1cc(O)c2c(c1)OC(C)(C)[C@@H]1CC[C@H](O)C[C@@H]21 [Compound 6e, 6a,7,8,9,10,10a-Hexahydro-3-(1′,1′-dimethylhept-6′-ynyl)-6,6-dimethyl-6H-dibenzo[b,d]pyran-1,9α-diol]	–	12	–	–	11.3
CCCCCCC(C)(C)c1cc(O)c2c(c1)OC(C)(C)[C@@H]1CC[C@@H](N=[N+]=[N-])C[C@@H]21 [Compound 7g, 1-Hydroxy-3-(1′,1′-dimethylheptyl)-6,6-dimethyl-9β-azido-6a,7,8,8,10,10a-hexahydro-6H-dibenzo[b,d]pyran]	5	10.2	–	–	–
